Test results from patent publication US11168086B2, “Methods of synthesizing pyrazine compounds” (Hoffmann-La Roche Inc., priority 2015, dated 2021).

system: HBV; experiment: HBV inhibition assay: anti-HBV activity in vitro in HepG2.2.15 cells (extracellular HBV DNA by qPCR); assay type: cell-based; details: Hepatitis B virus, 120 h, five days after compound treatment, extracellular HBV DNA in culture supernatant by qPCR, concentration at which HBV replication is inhibited by 50%
How it was run: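 HepG2.2.15 cells (stably carrying HBV genome) treated with half-log serially diluted compounds at 0.5% DMSO final for five days. Extracellular HBV DNA in supernatant quantified by qPCR after Proteinase K digestion; EC50 is concentration giving 50% inhibition of replication.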

`C[C@@H]1[C@@H](Oc2ncccn2)[C@H](O)C(=O)N1c1cnn2c1CN(C(=O)Nc1cc(F)c(F)c(F)c1)[C@@H](C)C2` [Example 436, (6S)-3-[(2R,3R,4S)-4-hydroxy-2-methyl-5-oxo-3-pyrimidin-2-yloxy-pyrrolidin-1-yl]-6-methyl-N-(3,4,5-trifluorophenyl)-6,7-dihydro-4H-pyrazolo[1,5-a]pyrazine-5-carboxamide] and `C[C@H]1Cn2ncc(N3CC(c4cccnc4)CC3=O)c2CN1C(=O)Nc1cc(F)c(F)c(F)c1` (stereo partly drawn) [Example 351, (6S)-6-methyl-3-[2-oxo-4-(3-pyridyl)pyrrolidin-1-yl]-N-(3,4,5-trifluorophenyl)-6,7-dihydro-4H-pyrazolo[1,5-a]pyrazine-5-carboxamide] are within 1.5-fold of each other in EC50: 16 nM for the first, 12 nM for the second.

Going from `C[C@H]1Cn2ncc(N3CC(C)(C(=O)N4CCC(F)(F)C4)CC3=O)c2CN1C(=O)Nc1cc(F)c(F)c(F)c1` (stereo partly drawn) [Example 400, (6S)-3-[4-(3,3-difluoropyrrolidine-1-carbonyl)-4-methyl-2-oxo-pyrrolidin-1-yl]-6-methyl-N-(3,4,5-trifluorophenyl)-6,7-dihydro-4H-pyrazolo[1,5-a]pyrazine-5-carboxamide] to `C[C@H]1Cn2ncc(N3CCCOC3=O)c2CN1C(=O)Nc1cc(F)c(F)c(F)c1` [Example 292, (6S)-6-methyl-3-(2-oxo-1,3-oxazinan-3-yl)-N-(3,4,5-trifluorophenyl)-6,7-dihydro-4H-pyrazolo[1,5-a]pyrazine-5-carboxamide], the EC50 falls from 94 nM to 48 nM (2-fold).

Compared with `C[C@H]1Cn2ncc(N3CC(C(=O)Nc4ncco4)CC3=O)c2CN1C(=O)Nc1cc(F)c(F)c(F)c1` (stereo partly drawn) [Example 392, (6S)-6-methyl-3-[4-(oxazol-2-ylcarbamoyl)-2-oxo-pyrrolidin-1-yl]-N-(3,4,5-trifluorophenyl)-6,7-dihydro-4H-pyrazolo[1,5-a]pyrazine-5-carboxamide], `C[C@H]1Cn2ncc(N3CC(C(F)(F)F)CC3=O)c2CN1C(=O)Nc1cc(F)c(F)c(F)c1` (stereo partly drawn) [Example 259, (6S)-6-methyl-3-[2-oxo-4-(trifluoromethyl)pyrrolidin-1-yl]-N-(3,4,5-trifluorophenyl)-6,7-dihydro-4H-pyrazolo[1,5-a]pyrazine-5-carboxamide] is 3.8-fold lower in EC50: 88 nM for the first, 23 nM for the second. The second is the more potent here.

`C[C@H]1[C@H](C)n2ncc(N3CCOCC3=O)c2CN1C(=O)Nc1cc(F)c(F)c(F)c1` [Example 274, (6S,7S)-6,7-dimethyl-3-(3-oxomorpholin-4-yl)-N-(3,4,5-trifluorophenyl)-6,7-dihydro-4H-pyrazolo[1,5-a]pyrazine-5-carboxamide] and `C[C@H]1Cn2ncc(N3CCOCC3=O)c2CN1C(=O)Nc1cc(F)c(F)c(C(F)F)c1` [Example 271, (6S)—N-[3-(difluoromethyl)-4,5-difluoro-phenyl]-6-methyl-3-(3-oxomorpholin-4-yl)-6,7-dihydro-4H-pyrazolo[1,5-a]pyrazine-5-carboxamide] are within 1.5-fold of each other in EC50: 40 nM for the first, 38 nM for the second.

`C#Cc1cc(NC(=O)N2CCn3ncc(-c4ccc(F)cc4)c3C2)ccc1F` [Example 122, N-(3-ethynyl-4-fluoro-phenyl)-3-(4-fluorophenyl)-6,7-dihydro-4H-pyrazolo[1,5-a]pyrazine-5-carboxamide] and `O=C(Nc1ccc(F)c(Cl)c1)N1CCn2ncc(-c3ccc(F)cc3)c2C1` [Example 21, N-(3-chloro-4-fluoro-phenyl)-3-(4-fluorophenyl)-6,7-dihydro-4H-pyrazolo[1,5-a]pyrazine-5-carboxamide] are within 1.5-fold of each other in EC50: 93 nM for the first, 76 nM for the second.

`O=C(Nc1ccc(F)cc1)N1CCn2ncc(-c3ccccc3F)c2C1` [Example 33, 3-(2-fluorophenyl)-N-(4-fluorophenyl)-6,7-dihydro-4H-pyrazolo[1,5-a]pyrazine-5-carboxamide] and `Cc1cc(-c2cnn3c2CN(C(=O)Nc2ccc(F)c(Cl)c2)CC3)ncc1F` [Example 68, N-(3-chloro-4-fluoro-phenyl)-3-(5-fluoro-4-methyl-2-pyridyl)-6,7-dihydro-4H-pyrazolo[1,5-a]pyrazine-5-carboxamide] are within 1.5-fold of each other in EC50: 85 nM for the first, 75 nM for the second.
